“And” between values parts separate entries of the source, which are not always exact repeats. Equal values may be shown once. Read-outs that look alike come from different tables or passages of the source. Each block holds one compound with its values, some of them ahead of it.
Tests used:
hcSHMT [1] = target: T1, hcSHMT (Homo sapiens, UniProt P34896); format: binding
T1 sequence (P34896 1-483): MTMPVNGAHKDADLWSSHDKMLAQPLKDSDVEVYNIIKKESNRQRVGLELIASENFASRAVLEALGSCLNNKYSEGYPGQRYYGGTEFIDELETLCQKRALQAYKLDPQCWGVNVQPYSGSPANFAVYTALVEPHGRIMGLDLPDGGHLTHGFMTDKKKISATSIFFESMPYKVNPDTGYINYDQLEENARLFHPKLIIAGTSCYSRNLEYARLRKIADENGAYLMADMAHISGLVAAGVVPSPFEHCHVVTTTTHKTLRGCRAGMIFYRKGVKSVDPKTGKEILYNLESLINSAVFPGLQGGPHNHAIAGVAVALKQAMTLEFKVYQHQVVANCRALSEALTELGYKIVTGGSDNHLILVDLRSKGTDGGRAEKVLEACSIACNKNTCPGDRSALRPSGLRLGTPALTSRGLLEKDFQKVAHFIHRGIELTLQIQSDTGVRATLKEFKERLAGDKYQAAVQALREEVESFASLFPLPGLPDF

hcSHMT [2] = target: T1, hcSHMT; experiment: Isothermal titration calorimetry; format: binding; details: ITC, 25°C, 10 mM glycine
SHMT = details: cited from earlier work

Kd (hcSHMT [1]): 1500 nM
n (binding stoichiometry) (hcSHMT [2]): 0.51±0.03
ΔH (heat of binding) (hcSHMT [2]): 4.64 ± 0.39 kcal/mol
ΔS (hcSHMT [2]): 42.4 cal mol^−1/deg
Kd (hcSHMT [2]): 1360 ± 490 nM
Structure (SMILES): Nc1nc2c(c(=O)[nH]1)N(C=O)C(CNc1ccc(C(=O)N[C@@H](CCC(=O)O)C(=O)O)cc1)CN2 (stereo partly shown) [Leucovorin, 5-formyltetrahydrofolate]
inhibition of SHMT (SHMT; both SHMT isoforms): potent, low-micromolar inhibitor

Structure (SMILES): Nc1nc2c(c(=O)[nH]1)C[C@@H](CCc1ccc(C(=O)N[C@@H](CCC(=O)O)C(=O)O)cc1)CN2 [Lometrexol]
inhibition mechanism (hcSHMT [1]; with respect to leucovorin, double reciprocal plot): competitive inhibitor
ΔH (heat of binding) (hcSHMT [2]): 3.50 ± 0.06 kcal/mol
ΔS (hcSHMT [2]): 38.0 cal mol^−1/deg
n (binding stoichiometry) (hcSHMT [2]; listed as LTX): 0.53±0.05
Kd (hcSHMT [2]): 2000 nM and 1990 nM

Structure (SMILES): CC1(C)N=C(N)N=C(N)N1c1ccc(CCCCc2ccc(S(=O)(=O)F)cc2Cl)c(Cl)c1.CCS(=O)(=O)O [NSC127755]
inhibition of SHMT (SHMT): irreversible inhibitor

Structure (SMILES): Nc1nc2[nH]cc(CCc3ccc(C(=O)N[C@@H](CCC(=O)O)C(=O)O)cc3)c2c(=O)[nH]1 [Pemetrexed, (S)-2-[4-[2-(4-amino-2-oxo-3,5,7-triazabicyclo[4.3.0]nona-3,8,10-trien-9-yl)ethyl]benzoyl] aminopentanedioic acid]
inhibition of hcSHMT (SHMT; hcSHMT): low micromolar inhibitor
